The values below come from patent US20110294992A1, “METAL RESPONSIVE MRI-AGENTS” (The Regents of the University of California, priority 2010, published 2011).

A short description of data set [1]: Metal ion selectivity of relaxivity response (competing metal ions alone or with added copper). The data set is classed as physicochemical. As to conditions: relaxivity at 60 MHz, 20 mM HEPES, pH 7, 37° C. As to the method:
FIG. 6. Relaxivity responses of CG2 to various metal ions. White bars represent the addition of an excess of the appropriate metal ion (10 mM for Na^+, 2 mM for K^+, Mg^2+, and Ca^2+, and 0.2 mM for Fe^2+, Fe^3+, Cu^2+) to a 0.2 mM solution of CG2. Response to Zn^2+ was measured both at 0.2 mM Zn^2+ (Zn^2+1×) and 2 mM Zn^2+ (Zn^2+10×). Black bars represent the subsequent addition of 0.2 mM Cu^+ to the CG2 solution. Relaxivity measurements were acquired at 37° C. in 20 mM HEPES buffer, pH 7, at a proton Larmor frequency of 60 MHz.
The potential ability of this new family of CG sensors to sense bioavailable copper pools in either or both its predominant oxidation states represents a significant advance over the initial CG1 compound.

Data set [2] in a line: Nuclear magnetic relaxation dispersion (NMRD) profiles, Solomon-Bloembergen-Morgan fit. Format: physicochemical. As to conditions: copper free; for r1p 20 MHz 25° C.: 0.5 mM, 20 mM HEPES pH 7; for a (distance of closest approach of outer-sphere water protons) / Δ^2 (average quadratic transient zero field splitting) / τv (electronic correlation time): best-fit value; for q: fixed in the fitting procedure; for τR (rotational correlation time): not experimentally determined, assumed equal to corresponding q ≠ 0 complex (CG5: average of the other complexes). The procedure:
FIG. 9. ^1H Nuclear magnetic relaxation dispersion profiles of CG3 and CG3+Cu^+ acquired at 25° C. The solid lines represent the best fit profiles.
As a secondary, independent set of experiments to further probe the mechanisms of copper ion sensing by the CG contrast agents, we also performed nuclear magnetic relaxation dispersion (NMRD) measurements of these sensors in the absence and in the presence of copper ions using a field cycling relaxometer (FIG. 9). The profiles obtained were analyzed following Solomon-Bloembergen-Morgan theory^36-38 for the inner-sphere relaxivity and the Freed model^115 for the outer-sphere relaxivity, fixing the diffusion coefficient (D) at […], the distance between Gd^3+ and the inner sphere water protons (r) at 3.1 Å, and the inner sphere exchange lifetime (τM) at 160 ns, the reported value for the parent complex Gd^3+-DO3A. Profiles were obtained for all compounds in the copper-free state. Profiles in the presence of Cu^n+ were obtained for CG2-4 (Cu^+) and CG6 (Cu^2+).
In fact, the measured outer-sphere relaxivities were so low that, in order to obtain a reasonable fit, the distance of closest approach of outer-sphere water protons (a) was allowed to vary. The distances obtained for the CG complexes (4.2-4.8 Å) were markedly longer than what is observed for typical Gd^3+ contrast agents with greater water access (3.8-4 Å). These values correlate with the copper-free relaxivities of CG2-6; longer a values give lower relaxivities and shorter a values give higher relaxivities. For Cu^+-sensing agents CG2-4, the estimated change in q of 2 as determined by DIS measurements was also observed in the fitted NMRD data. In fact, any attempt to fit the observed NMRD profiles with q=1 led to very poor agreement between experimental and calculated values. The change in q of 1 for CG6 upon addition of Cu^2+ as determined by NMRD is consistent with the lower turn-on response observed with this complex compared to CG2-4. The reduced q modulation for CG6 relative to CG2-4 could indicate that the carboxylic acid moiety used for Cu^2+ binding also interacts with the Gd^3+ center in the Cu^2+-bound state. The fitted rotational correlation times (τR) for copper-bound CG complexes all fall within the range expected for Gd^3+ complexes with molecular weights of 700-800 D. τR values for copper-free CG2-6 were fixed to values close to their copper-bound analogues as fits of NMRD data for q=0 complexes are not sensitive to small changes in τR. The values of Δ^2 (average quadratic transient zero field splitting), τv (electronic correlation time), and τs0 (electronic relaxation time at zero field), which govern the electronic relaxation time, are relatively similar to each other. These NMRD values are closer to those of Gd^3+-DTPA than Gd^3+-DOTA, reflecting the asymmetry of CG2-6.^64

A short description of data set [3]: Apparent Kd for Cu+ by UV-visible absorption with competing ligand thiourea. As to conditions: 20 mM HEPES buffer, pH 7, 25° C., 1:1 stoichiometry assumed, read-out: Kd (apparent dissociation constant). Format: binding. As to the method: FIG. 5. Normalized absorbance response of 0.2 mM CG2-6 to buffered Cu^+ (CG2-5) or Cu^2+ (CG6) solutions for Kd value determination. Spectra were acquired in 20 mM HEPES, pH 7.

Data set [4] in a line: Longitudinal relaxivity (r1) from T1 measurements at 60 MHz, absence of copper. The data set is classed as physicochemical. As to conditions: no copper; 60 MHz, 20 mM HEPES buffer, pH 7, 37° C., 0.2 mM Gd^3+. The procedure:
(§1) The longitudinal relaxivity values for the CG contrast agents in the absence or presence of copper ions were determined using T1 measurements at 60 MHz. Studies were performed at 37° C. in 20 mM HEPES buffered to pH 7, and solutions of the purified CG sensors for relaxivity experiments contained 0.2 mM Gd^3+ as determined by ICP-OES. Spectroscopic data are collected in Table 1.
Nuclear magnetic relaxation dispersion (NMRD) experiments provide supporting evidence for this proposal (vide infra).

A short description of data set [5]: Longitudinal relaxivity (r1) turn-on response to Cu+ from T1 measurements at 60 MHz. As to conditions: pH 7, 37° C.; for r1 (1 equiv Cu): 20 mM HEPES buffer. The data set is classed as physicochemical. The procedure: as §1
Upon addition of up to 1 equiv of copper ions, the relaxivity values of the CG contrast agents increase, establishing the ability of these probes to sense copper using the MR modality (Table 1, FIG. 3). CG2, CG3, CG4, and CG5 respond to Cu^+ with relaxivity increases ranging from 92% to 360%. […] These values represent the largest relaxivity enhancements observed to date for metal-activated MR contrast agents and a ca. 9-fold improvement in copper ion response compared to CG1 (41% increase). The observed differences in turn-on Cu^+ responses for benzyl-substituted CG4 (290% increase) versus methyl-substituted CG5 (92% increase) with the same pyridyl-thioether receptor show the marked effects that small peripheral substitutions can have on relaxivity properties.

Data set [6] is described as follows: Electrochemical Cu2+/Cu+ reduction potentials of copper-bound CG complexes. The data set is classed as physicochemical. As to conditions: PBS buffer, pH 7.4. As to the method: CG6 is a unique member of the CG family that is equally responsive to both Cu^+ and Cu^2+. Addition of either Cu^+ or Cu^2+ to CG6 triggers a maximum 73% relaxivity turn-on from r1=2.2 mM^−1s^−1 to r1=3.8 mM^−1s^−1. […] On the other hand, copper-bound CG6, which responds to both Cu^+ and Cu^2+, has the least positive Cu^2+/Cu^+ reduction potential at +0.13 V.

The conditions of data set [7]: in water, measured at 10 MHz; cited from earlier work.
Data set [8] can be described thus: Dysprosium-induced 17O NMR shift (DIS) experiments for q. As to conditions: for −Δ ppm/[Dy] (DIS slope): no Cu^+. The data set is classed as physicochemical. As to the method: FIG. 8. Plot of [DyCG2] vs. −Δ ppm of the ^17O signal of H2O in the absence and presence of 1 equiv Cu^+. Spectra were acquired at room temperature in 20 mM HEPES buffer, pH 7, at a ^17O Larmor frequency of 67.8 MHz.
To circumvent these issues, we turned our attention to an alternative method for obtaining q values, namely the application of ^17O NMR spectroscopy to Dy^3+ analogs of the CG sensors (DyCG2-6).^114 Specifically, interactions of water ligands with paramagnetic Dy^3+ ions lead to an upfield shift of the ^17O signals of H2O in a manner proportional to both the concentration of Dy^3+ and q. Moreover, this lanthanide-induced shift is largely insensitive to the non-water ligands coordinated to the paramagnetic metal center.^114 Dysprosium-induced shift (DIS) experiments for CG2 and CG3 were performed in 20 mM HEPES buffered to pH 7; CG4 and CG5 spectra were acquired in 10% acetonitrile in 20 mM HEPES buffered to pH 7 owing to solubility and stability of the Cu^+-bound complexes at higher Dy^3+ concentrations required for the DIS measurements (1-200 mmol/kg H2O). Dy concentrations were calculated using molality (with respect to H2O) since the ^17O shift represents the interaction between Dy^3+ and H2O; addition of CH3CN aids in stabilizing certain complexes but should not affect the DIS. The spectral results were calibrated to a DyCl3 standard (q=9) to determine the number of bound water molecules for the CG sensors with and without added Cu^+. A plot of varying DyCl3 concentrations versus DIS in pH 7 HEPES buffer has a slope of 324 ppm/(mol/kg H2O), which corresponds to a 36 ppm/(mol/kg H2O) shift per bound water molecule.
The effects of DyCG2 on the chemical shift of ^17O-labeled H2O were determined in the absence and presence of 1 equiv Cu^+ at various concentrations of Dy^3+ (FIG. 8). In the absence of Cu^+, the measured ^17O shift response for DyCG2 is 9 ppm/(mol/kg H2O), corresponding to q=0.3. When 1 equiv of Cu^+ is added, the observed shift response increases to 72 ppm/(mol/kg H2O), corresponding to q=2.0. […] DIS measurements of DyCG4 and DyCG5 without Cu^+ show slopes of 7 ppm/(mol/kg H2O) (q=0.2) and 12 ppm/(mol/kg H2O) (q=0.3), respectively. Cu^+ binding increases the DIS slopes for DyCG4 and DyCG5 to […] ([…]) and 41 ppm/(mol/kg H2O) (q=1.0), respectively.

The conditions of data set [9]: see reference 90, cited from earlier work.

Read-outs that look alike come from different tables or passages of the source. Marks after values point to notes of the source that are not given here.

`CCSCCN(Cc1ccccc1)Cc1cccc(CN2CCN(CC(=O)[O-])CCN(CC(=O)[O-])CCN(CC(=O)[O-])CC2)n1.[Gd+3]` [CG4]: in [1], the “redox specificity of relaxivity response (Cu^+ vs Cu^2+)” value is “give turn-on relaxivity increases with Cu^+ but do not respond to Cu^2+”. Besides, in data set [2], the “τs0 (electronic relaxation time at zero field)” value is recorded as 99 ps, the “r1p 20 MHz 25° C.” value stood at 2.1 mM⁻¹ s⁻¹, the “a (distance of closest approach of outer-sphere water protons)” value is 4.2 ± 0.15 Å and the “Δ^2 (average quadratic transient zero field splitting)” value is listed as 3.4 ± 1.4 10^19 s^−2. In data set [2], the “τv (electronic correlation time)” value is reported as 25 ± 7.7 ps, the q was 0^c and the “τR (rotational correlation time)” value is reported as 130^d ps. The Kd in data set [3] amounted to 0.014 nM. In data set [4], the “r1 (no Cu)” value was 1.7 mM⁻¹ s⁻¹. The “r1 (1 equiv Cu)” value in data set [5] is 6.6^b mM^−1s^−1. Also, the “Cu^2+/+ E1/2” value in data set [6] was determined as 0.40 V vs. SHE.
Take `[Cu+2]` [Cu^2+]: the r1 value in data set [7] is 1.0 mM⁻¹ s⁻¹.
Take `CCSCCN(C)Cc1cccc(CN2CCN(CC(=O)[O-])CCN(CC(=O)[O-])CCN(CC(=O)[O-])CC2)n1.[Gd+3]` [CG5]: the “redox specificity of relaxivity response (Cu^+ vs Cu^2+)” value in data set [1] is “give turn-on relaxivity increases with Cu^+ but do not respond to Cu^2+”. Also, in data set [2], the “τs0 (electronic relaxation time at zero field)” value is 95 ps, the “r1p 20 MHz 25° C.” value was 1.6 mM⁻¹ s⁻¹, the “a (distance of closest approach of outer-sphere water protons)” value is on record as 4.8 ± 0.12 Å and the “Δ^2 (average quadratic transient zero field splitting)” value was 3.5 ± 0.8 10^19 s^−2. In data set [2], the “τv (electronic correlation time)” value was 25 ± 4.2 ps, the q was 0^c and the “τR (rotational correlation time)” value is 100^e ps. In addition, the Kd in data set [3] turned out to be 0.032 nM. Also, in data set [4], the “r1 (no Cu)” value came to 1.2 mM⁻¹ s⁻¹. Besides, the “% increase in r1” value in [5] (1 equiv Cu^+ vs no Cu, 20 mM HEPES) came out at 92%. Further, in data set [5], the “r1 (1 equiv Cu)” value is given as 2.3^b mM^−1s^−1. Besides, the “Cu^2+/+ E1/2” value in data set [6] was 0.34 V vs. SHE.
For `[Cl][Dy]([Cl])[Cl]` [DyCl3, reference compound], the “−Δ ppm/[Dy] (DIS slope)” value is recorded as 324 ppm/(mol/kg H2O) in [8] (20 mM HEPES, pH 7) and 362 ppm/(mol/kg H2O) in [8] (10% CH3CN in 20 mM HEPES pH 7). Besides, the “shift per bound water molecule” value is on record as 40 ppm/(mol/kg H2O) in [8] (10% acetonitrile in 20 mM pH 7 HEPES buffer) and 36 ppm/(mol/kg H2O) in data set [8] (pH 7 HEPES buffer). Further, the “q of calibration standard” value in [9] (20 mM HEPES, pH 7) was 9^a; in data set [9] (10% CH3CN in 20 mM HEPES pH 7) it was 9^a.
